Results reported in patent US12590066B2, “Fused-heterocyclyl-carbonohydrazonoyl dicyanide compounds and use thereof” (KOREA INSTITUTE OF SCIENCE AND TECHNOLOGY, priority 2020, dated 2026).

Key:
tau protein = molecular target: T1, tau protein (Homo sapiens, UniProt P10636); assay: Tau-BiFC cell model, inhibition of Forskolin-induced tau protein aggregation; assay type: cell-based; settings: Forskolin 30 μM, 48 hours; for Tau BiFC in cells Response (% @10 μM): 10 μM compound, Forskolin-only group = 100% tau protein-aggregated state; for IC50: tau-BiFC cells
T1 construct: BiFC fluorescent-protein fragments (type and halves not specified); expressed in transfected cells
T1 sequence (P10636 1-441 isoform P10636-8): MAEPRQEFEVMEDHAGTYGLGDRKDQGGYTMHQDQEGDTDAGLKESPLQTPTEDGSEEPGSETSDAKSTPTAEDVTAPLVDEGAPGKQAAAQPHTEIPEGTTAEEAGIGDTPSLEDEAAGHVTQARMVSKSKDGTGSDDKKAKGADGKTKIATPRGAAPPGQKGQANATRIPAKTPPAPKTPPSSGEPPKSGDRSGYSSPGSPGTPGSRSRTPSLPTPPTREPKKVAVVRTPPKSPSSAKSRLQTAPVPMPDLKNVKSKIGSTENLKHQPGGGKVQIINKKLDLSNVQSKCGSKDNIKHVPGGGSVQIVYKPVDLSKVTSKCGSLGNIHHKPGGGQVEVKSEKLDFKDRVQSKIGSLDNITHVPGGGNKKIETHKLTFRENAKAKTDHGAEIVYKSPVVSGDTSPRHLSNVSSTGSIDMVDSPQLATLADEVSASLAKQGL
Outline: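 Tau-BiFC cells co-treated 48 h with 30 μM forskolin and compounds (1, 3, 10 μM screen; 0.01–30 μM dose-response). BiFC fluorescence normalized to forskolin-only (100% aggregation) minus untreated gives aggregation inhibition and IC50; viability as Hoechst-stained nuclei count relative to forskolin-only.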

CYP1A2 = molecular target: T2, CYP1A2 (Homo sapiens, UniProt P05177); assay: Inhibitory effect on CYP coenzyme activity, human liver microsomes; assay type: in vitro ADME; settings: 10 μM compound, human liver microsomes 0.25 mg/mL, substrate phenacetin, 15 minutes
T2 construct: human liver microsomes (0.25 mg/mL); from tissue; host or cells: human liver microsomes
T2 sequence (P05177 1-516): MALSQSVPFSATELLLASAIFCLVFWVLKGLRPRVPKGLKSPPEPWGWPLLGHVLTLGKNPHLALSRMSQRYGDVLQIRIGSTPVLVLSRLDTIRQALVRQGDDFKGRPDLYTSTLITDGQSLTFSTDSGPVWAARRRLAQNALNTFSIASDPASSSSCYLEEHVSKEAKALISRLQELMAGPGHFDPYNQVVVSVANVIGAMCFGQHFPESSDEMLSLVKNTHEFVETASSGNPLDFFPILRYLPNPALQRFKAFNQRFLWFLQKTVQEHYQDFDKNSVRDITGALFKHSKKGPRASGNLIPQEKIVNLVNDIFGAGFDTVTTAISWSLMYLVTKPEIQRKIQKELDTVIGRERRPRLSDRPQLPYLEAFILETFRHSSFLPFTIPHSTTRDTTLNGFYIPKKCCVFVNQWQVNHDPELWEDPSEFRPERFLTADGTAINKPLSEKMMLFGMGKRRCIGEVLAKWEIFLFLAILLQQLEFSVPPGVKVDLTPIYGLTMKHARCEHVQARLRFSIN
Procedure: (§1) The inhibitory effects of the compounds prepared according to Examples 1 to 57 on CYP coenzyme activity were identified. Specifically, human liver microsomes (0.25 mg/mL), a 0.1 M phosphate buffer solution (pH 7.4), a substrate drug cocktail of five types of drug metabolism enzymes (50 μM phenacetin, 10 μM diclofenac, 100 μM S-mephenytoin, 5 μM dextromethorphan, and 2.5 μM midazolam), and the compound at a concentration of 0 μM or 10 μM were mixed and pre-cultured at 37° C. for 5 minutes, and then further cultured at 37° C. for 15 minutes together with an NADPH generation system solution added thereto. Thereafter, the reaction was terminated by adding an acetonitrile solution containing an internal standard material (terfenadine) and centrifuged for 5 minutes (14,000 rpm, 4° C.), and then a supernatant was injected into an LC-MS/MS system for simultaneous analysis of metabolites of the substrate drugs to thereby evaluate the inhibitory effects on drug metabolism.
(§2) Metabolites of each CYP coenzyme indicator drug generated through the reaction were analyzed using the Shimadzu Nexera XR system and TSQ Vantage (Thermo). In an HPLC column, Kinetex C18 (2.1 mm×100 mm, 2.6 μm, particle size; Phenomenex, USA) was used, and mobile phases were (A) distilled water containing 0.1% formic acid and (B) acetonitrile containing 0.1% formic acid, and a gradient program shown in Table 3 was applied thereto.
(§3) The generated metabolites were quantified using a multiple reaction monitoring (MRM) quantification mode, and Xcalibur (version 1.6.1) was used for data analysis. In order to express inhibitory effects of the novel compound prepared according to the examples of the present invention on CYP coenzyme activity, CYP coenzyme activities (%) with respect to the control group not treated with the compound are shown in Table 4 below.

CYP2C19 = molecular target: T3, CYP2C19 (Homo sapiens, UniProt P33261); assay: as above; assay type: in vitro ADME; settings: 10 μM compound, human liver microsomes 0.25 mg/mL, substrate S-mephenytoin, 15 minutes
T3 construct: human liver microsomes (0.25 mg/mL); from tissue; host or cells: human liver microsomes
T3 sequence (P33261 whole entry): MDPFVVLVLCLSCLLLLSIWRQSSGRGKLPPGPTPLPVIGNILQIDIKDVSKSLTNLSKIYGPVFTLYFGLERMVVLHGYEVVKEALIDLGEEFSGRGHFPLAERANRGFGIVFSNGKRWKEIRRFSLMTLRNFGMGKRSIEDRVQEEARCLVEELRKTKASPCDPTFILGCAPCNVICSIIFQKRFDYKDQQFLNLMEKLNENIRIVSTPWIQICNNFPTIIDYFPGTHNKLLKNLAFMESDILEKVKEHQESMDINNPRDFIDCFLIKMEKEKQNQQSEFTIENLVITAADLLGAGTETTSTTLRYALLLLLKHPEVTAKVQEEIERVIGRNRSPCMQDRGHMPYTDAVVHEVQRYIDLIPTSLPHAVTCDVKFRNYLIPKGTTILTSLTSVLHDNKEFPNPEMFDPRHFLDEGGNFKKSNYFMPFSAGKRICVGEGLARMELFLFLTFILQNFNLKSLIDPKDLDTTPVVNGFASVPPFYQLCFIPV
Procedure: as §1, §2, §3

CYP2C9 = molecular target: T4, CYP2C9 (Homo sapiens, UniProt P11712); assay: as above; assay type: in vitro ADME; settings: 10 μM compound, human liver microsomes 0.25 mg/mL, substrate diclofenac, 15 minutes
T4 construct: human liver microsomes (0.25 mg/mL); from tissue; host or cells: human liver microsomes
T4 sequence (P11712 whole entry): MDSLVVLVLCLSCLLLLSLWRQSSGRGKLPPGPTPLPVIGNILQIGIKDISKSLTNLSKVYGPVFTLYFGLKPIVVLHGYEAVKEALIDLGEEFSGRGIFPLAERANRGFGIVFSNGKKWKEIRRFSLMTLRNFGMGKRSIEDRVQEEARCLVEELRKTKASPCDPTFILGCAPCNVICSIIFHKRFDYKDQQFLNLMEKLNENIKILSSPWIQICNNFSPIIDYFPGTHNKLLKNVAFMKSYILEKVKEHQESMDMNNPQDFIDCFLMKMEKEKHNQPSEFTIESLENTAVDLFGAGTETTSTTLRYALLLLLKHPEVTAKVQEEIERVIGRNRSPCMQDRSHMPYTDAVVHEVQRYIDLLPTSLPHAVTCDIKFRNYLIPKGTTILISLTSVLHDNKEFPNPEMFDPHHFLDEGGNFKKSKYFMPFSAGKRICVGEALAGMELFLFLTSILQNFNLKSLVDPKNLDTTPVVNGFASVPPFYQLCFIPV
Procedure: as §1, §2, §3

CYP2D6 = molecular target: T5, CYP2D6 (Homo sapiens, UniProt P10635); assay: as above; assay type: in vitro ADME; settings: 10 μM compound, human liver microsomes 0.25 mg/mL, substrate dextromethorphan, 15 minutes
T5 construct: human liver microsomes (0.25 mg/mL); from tissue; host or cells: human liver microsomes
T5 sequence (P10635 whole entry): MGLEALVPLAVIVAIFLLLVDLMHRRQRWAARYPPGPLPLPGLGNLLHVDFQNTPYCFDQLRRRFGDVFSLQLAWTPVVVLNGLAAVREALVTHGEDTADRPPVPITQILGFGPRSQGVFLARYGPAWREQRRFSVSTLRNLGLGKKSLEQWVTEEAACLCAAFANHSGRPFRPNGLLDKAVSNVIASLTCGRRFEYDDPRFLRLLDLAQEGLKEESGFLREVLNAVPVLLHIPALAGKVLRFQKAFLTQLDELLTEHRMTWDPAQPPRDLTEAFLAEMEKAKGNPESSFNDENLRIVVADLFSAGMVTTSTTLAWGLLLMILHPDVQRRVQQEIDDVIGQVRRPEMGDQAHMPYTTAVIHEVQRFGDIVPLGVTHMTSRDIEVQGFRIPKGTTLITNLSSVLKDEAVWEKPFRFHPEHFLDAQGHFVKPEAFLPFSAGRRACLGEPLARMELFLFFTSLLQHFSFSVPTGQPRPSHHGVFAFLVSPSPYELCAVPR
Procedure: as §1, §2, §3

CYP3A4 = molecular target: T6, CYP3A4 (Homo sapiens, UniProt P08684); assay: as above; assay type: in vitro ADME; settings: 10 μM compound, human liver microsomes 0.25 mg/mL, substrate midazolam, 15 minutes
T6 construct: human liver microsomes (0.25 mg/mL); from tissue; host or cells: human liver microsomes
T6 sequence (P08684 whole entry): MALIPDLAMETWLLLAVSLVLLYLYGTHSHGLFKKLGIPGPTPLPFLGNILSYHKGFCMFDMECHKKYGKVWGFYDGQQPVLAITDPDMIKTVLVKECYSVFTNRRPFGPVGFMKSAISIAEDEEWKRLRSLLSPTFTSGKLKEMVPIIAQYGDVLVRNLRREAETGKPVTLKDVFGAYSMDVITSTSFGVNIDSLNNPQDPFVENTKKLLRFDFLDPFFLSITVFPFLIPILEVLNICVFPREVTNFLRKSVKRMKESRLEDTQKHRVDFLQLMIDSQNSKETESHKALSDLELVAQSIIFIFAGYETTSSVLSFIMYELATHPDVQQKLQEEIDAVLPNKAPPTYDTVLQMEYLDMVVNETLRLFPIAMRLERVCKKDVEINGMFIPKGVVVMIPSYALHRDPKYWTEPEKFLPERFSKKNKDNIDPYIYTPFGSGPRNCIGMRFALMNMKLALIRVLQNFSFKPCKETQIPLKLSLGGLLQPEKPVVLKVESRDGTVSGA
Procedure: as §1, §2, §3

Structure (SMILES) | Tau BiFC in cells Response (% @10 μM) (tau protein) | IC50 (tau protein) | CYP1A2 coenzyme activity (%) with respect to control group not treated (CYP1A2) | CYP2C19 coenzyme activity (%) with respect to control group not treated (CYP2C19) | CYP2C9 coenzyme activity (%) with respect to control group not treated (CYP2C9) | CYP2D6 coenzyme activity (%) with respect to control group not treated (CYP2D6) | CYP3A4 coenzyme activity (%) with respect to control group not treated (CYP3A4)
Cn1c(=O)sc2cc(NN=C(C#N)C#N)ccc21 [Compound 14, (3-methyl-2-oxo-2,3-dihydrobenzo[d]thiazol-6-yl)carbonohydrazonoyl dicyanide] | 0% | 60 nM | 81.6% | 68.8% | 19.5% | 85.6% | 91.2%
CC(C)n1c(=O)n(C)c2ccc(NN=C(C#N)C#N)cc21 [Compound 36, (3-isopropyl-1-methyl-2-oxo-2,3-dihydro-1H-benzo[d]imidazol-5-yl)carbonohydrazonoyl dicyanide] | −57% | 20 nM | 93.7% | 89.5% | 36.6% | >100% | 95.8%
Cn1c(=O)n(C(F)F)c2cc(NN=C(C#N)C#N)ccc21 [Compound 37, (3-(difluoromethyl)-1-methyl-2-oxo-2,3-dihydro-1H-benzo[d]imidazol-5-yl)carbonohydrazonoyl dicyanide] | −49% | 200 nM | 64.6% | 90.7% | 29.2% | >100% | 96.7%
Cc1cc2c(NN=C(C#N)C#N)cccc2c(=O)n1C [Compound 7, (2,3-dimethyl-1-oxo-1,2-dihydroisoquinolin-5-yl)carbonohydrazonoyl dicyanide] | 0% | 200 nM | 33.2% | 65.1% | 29.8% | 86.2% | 72%
CCn1c(=O)n(C(C)C)c2ncc(NN=C(C#N)C#N)cc21 [Compound 55, (1-ethyl-3-isopropyl-2-oxo-2,3-dihydro-1H-imidazo[4,5-b]pyridin-6-yl)carbonohydrazonoyl dicyanide] | −32% | 110 nM | 58.4% | 73.1% | 38.9% | 85.8% | 78%
Cn1c(=O)n(C)c2cc(NN=C(C#N)C#N)ccc21 [Compound 22, (1,3-dimethyl-2-oxo-2,3-dihydro-1H-benzo[d]imidazol-5-yl)carbonohydrazonoyl dicyanide] | 0% | 200 nM | 93.5% | >100% | 99% | >100% | >100%
CCn1c(=O)n(C)c2cc(NN=C(C#N)C#N)ccc21 [Compound 38, (1-ethyl-3-methyl-2-oxo-2,3-dihydro-1H-benzo[d]imidazol-5-yl)carbonohydrazonoyl dicyanide] | −31% | 30 nM | 98.9% | >100% | 92.6% | >100% | >100%
CC(C)n1c(=O)n(C(F)F)c2cc(NN=C(C#N)C#N)ccc21 [Compound 43, (3-(difluoromethyl)-1-isopropyl-2-oxo-2,3-dihydro-1H-benzo[d]imidazol-5-yl)carbonohydrazonoyl dicyanide] | −49% | 10 nM | 61.7% | 60.2% | 14.1% | 82.2% | 72.6%
N#CC(C#N)=NNc1ccc2[nH]c(=O)sc2c1 [Compound 13, (2-oxo-2,3-dihydrobenzo[d]thiazol-6-yl)carbonohydrazonoyl dicyanide] | 0.8% | 200 nM | 79% | 55.2% | 23.3% | 99.4% | 92.7%
Cn1ccc2c(NN=C(C#N)C#N)cccc2c1=O [Compound 5, (2-methyl-1-oxo-1,2-dihydroisoquinolin-5-yl)carbonohydrazonoyl dicyanide] | 0% | – | 70.7% | >100% | 29.1% | 93.1% | 88.6%
Cn1c(=O)n(C)c2cc(NN=C(C#N)C#N)c(Cl)cc21 [Compound 10, (6-chloro-1,3-dimethyl-2-oxo-2,3-dihydro-1H-benzo[d]imidazol-5-yl)carbonohydrazonoyl dicyanide] | 0% | 300 nM | 94.2% | 94.6% | >100% | >100% | >100%
CC(C)n1ccc2c(NN=C(C#N)C#N)cccc2c1=O [Compound 6, (2-isopropyl-1-oxo-1,2-dihydroisoquinolin-5-yl)carbonohydrazonoyl dicyanide] | 0% | 700 nM | 68.3% | 37.8% | 8.7% | 85.4% | 81.4%
Cn1c(=O)oc2cc(NN=C(C#N)C#N)ccc21 [Compound 16, (3-methyl-2-oxo-2,3-dihydrobenzo[d]oxazol-6-yl)carbonohydrazonoyl dicyanide] | 0% | 600 nM | 91.5% | 90.8% | 54.9% | >100% | 99.8%
